The test system of one assay is HCT116 MTAP-/-. Put plainly: Inhibition of cellular proliferation (Cell Titer Glo), HCT116 MTAP-/-. Type of assay: cell-based, human. The following applies: Homo sapiens, HCT-116, 96 h, Table 5a, 4 days, read-out: 4 Day Relative Growth Inhibition (MTAP −/−). How it is done: (§1) Test compound impact on cancer cell growth was assessed by treating cancer cells with compound for 4 days and then measuring proliferation using an ATP-based cell proliferation readout (Cell Titer Glo, Promega Corporation).
(§2) In a typical assay an isogenic pair of HCT116 human colon carcinoma cell lines which vary only in MTAP deletion status (HCT116 MTAP+/+ and HCT116 MTAP−/−) were plated in 96-well dishes at appropriate cell density. Following 24 hours, cells were then treated with the candidate MAT2A inhibitor. […] Compound was then transferred to a working stock plate in cell culture media by adding 5 μL of compound in DMSO to 495 μL of cell culture media. This working stock was then added to cells via a further 5-fold dilution, by adding 25 μL of working stock to 100 μL of cells in culture media. Following compound addition, cells were incubated at 37° C./5% CO2 for 4 days.
(§3) The plate was then covered with aluminum foil and shaken for 15 minutes to ensure complete mixing and full cell lysis. […] This luminescence measure was converted to a proliferation index by subtracting from each data point the ATP luminescence signal measured from a bank (no cells) well and dividing by the ATP luminescence signal measured in 0.2% DMSO control well adjusted for signal in blank well.
In general terms: ATP-based viability assays read luminescence as a measure of living cells.

Assay [1] relates to SAM in HCT116 MTAP-deleted cells. The assay is described as follows: Cellular assay of target engagement (SAM), LC-MS/MS. The following applies: Homo sapiens, HCT-116, Table 5a, 72 h, read-out: Cell 72 h SAM Inhibition (MTAP −/−). It counts as cell-based, human. How it is done:
Measurement of MAT2A activity in cells was made by direct quantitation of the abundance of the product of its enzymatic activity, SAM. Cancer cells were treated with candidate MAT2A inhibitors for a suitable incubation period, and the cells were then lysed using a reagent which quenched any further enzyme activity. Soluble metabolites including SAM were collected and SAM itself was directly measured from the lysate using quantitative LC-MS/MS.
A typical assay was performed using an HCT116 human colon carcinoma cell line which was genetically engineered to delete the MTAP gene (commercially available from Horizon Discovery). […] Cells were plated in 96-well dishes at appropriate cell density. Following 24 hours, cells were then treated with the candidate MAT2A inhibitor. […] Compound was then transferred to a working stock plate in cell culture media by adding 5 μL of compound in DMSO to 495 μL of cell culture media. This working stock was then added to cells via a further 5-fold dilution, by adding 25 μL of working stock to 100 μL of cells in culture media. Following compound addition, cells were incubated at 37° C./5% CO2 for 72 hrs.
To quantitate SAM levels following compound treatment, cells were gently washed once in ammonium carbonate buffer (75 mM at pH 7.4), placed on dry ice, and lysed with metabolite extraction buffer (80% cold methanol and 20% water (v/v) with acetic acid at 1M final concentration with 200 ng/mL deuterated d3-SAM as internal control). Following centrifugation at 4° C. at 3,200 rpm for 30 minutes, the supernatant was collected and stored at −80° C. until analysis by Liquid Chromatography with tandem Mass Spectrometry (LC-MS/MS). LC-MS/MS analysis was performed using an API6500 Mass Spectrometer (Sciex, Framingham, Mass., USA) operating in positive ion spray mode and equipped with a Waters UPLC Acquity (Waters, Milford, Mass., USA) BEH Amide column.

The target in the next assay is T1, MAT2A homodimer (Homo sapiens, UniProt P31153).
T1 construct: inferred from the Ni sepharose purification and imidazole elution; made in house; host or cells: SF9 insect cells, recombinant baculovirus (Bac to Bac, pFASTBAC1)
T1 sequence (P31153 whole entry): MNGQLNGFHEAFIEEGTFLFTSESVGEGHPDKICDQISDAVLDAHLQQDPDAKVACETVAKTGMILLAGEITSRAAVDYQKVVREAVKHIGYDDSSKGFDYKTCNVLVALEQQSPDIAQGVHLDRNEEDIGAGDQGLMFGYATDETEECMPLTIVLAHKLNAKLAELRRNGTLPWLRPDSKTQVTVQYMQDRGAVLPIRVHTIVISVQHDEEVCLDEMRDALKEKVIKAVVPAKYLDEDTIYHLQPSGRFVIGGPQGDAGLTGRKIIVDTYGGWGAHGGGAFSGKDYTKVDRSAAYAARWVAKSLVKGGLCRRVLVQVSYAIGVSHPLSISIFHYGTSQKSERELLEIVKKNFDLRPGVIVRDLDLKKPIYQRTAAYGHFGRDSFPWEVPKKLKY
The assay is described as follows: MAT2A biochemical assay (liberated phosphate, PiColorLock Gold). The following applies: Table 5a; MAT2A biochemical assay; read-out: Enzyme Inhibition. In outline: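 Baculovirus/Sf9-expressed, Ni-purified MAT2A homodimer preincubated with compound 60 min at 25 °C, then reacted 60 min at 25 °C with substrate mix of 500 μM ATP and 400 μM L-methionine, pH 7.0 (mix, not final levels). Phosphate released with SAM measured by PiColorLock Gold against phosphate standard curve.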

In the next assay the test system is HCT116 MTAP+/+. Put plainly: Inhibition of cellular proliferation (Cell Titer Glo), HCT116 MTAP+/+. It counts as cell-based. The following applies: Homo sapiens, HCT-116, 96 h, Table 5a, 4 days, read-out: 4 Day Relative Growth Inhibition (MTAP +/+). How it is done: as §1, §2, §3

Take `CCOc1ccc2c(n1)N(c1ccc(OC(F)F)cc1)C(=O)N(c1ccc3nccn3c1)C2` [Example 101, 1-(4-(difluoromethoxy)phenyl)-7-ethoxy-3-(imidazo[1,2-a]pyridin-6-yl)-3,4-dihydropyrido[2,3-d]pyrimidin-2(1H)-one]: the IC50 with HCT116 MTAP-/- is 0.1 to 1 µM; in assay [1], 0.1 to 1 µM; at MAT2A homodimer, below 0.1 µM; with HCT116 MTAP+/+, above 1 µM.
In the case of `[2H]C([2H])([2H])Oc1ccc(N2C(=O)N(c3ccc4ncsc4c3)Cc3ccc(OCC(F)F)nc32)cc1` [Example 102, 3-(benzo[d]thiazol-6-yl)-7-(2,2-difluoroethoxy)-1-(4-(methoxy-d3)phenyl)-3,4-dihydropyrido[2,3-d]pyrimidin-2(1H)-one], the IC50 in the assay on HCT116 MTAP-/- is 0.1 to 1 µM; in assay [1], below 0.1 µM; at MAT2A homodimer, below 0.1 µM; in the assay on HCT116 MTAP+/+, above 1 µM.
Turning to `[2H]C([2H])([2H])Oc1ccc(N2C(=O)N(c3ccc4nn(C)c(OC([2H])([2H])[2H])c4c3)Cc3ccc(OCC(F)F)nc32)cc1` [Example 103, 7-(2,2-difluoroethoxy)-3-(3-(methoxy-d3)-2-methyl-2H-indazol-5-yl)-1-(4-(methoxy-d3)phenyl)-3,4-dihydropyrido[2,3-d]pyrimidin-2(1H)-one], the IC50 in the assay on HCT116 MTAP-/- is below 0.1 µM; in assay [1] it was below 0.1 µM; at MAT2A homodimer, below 0.1 µM; with HCT116 MTAP+/+, above 1 µM.
Turning to `[2H]C([2H])([2H])Oc1ccc(N2C(=O)N(c3ccc4nn(C)c(OC)c4c3)Cc3ccc(OCC(F)F)nc32)cc1` [Example 104, 7-(2,2-difluoroethoxy)-3-(3-methoxy-2-methyl-2H-indazol-5-yl)-1-(4-(methoxy-d3)phenyl)-3,4-dihydropyrido[2,3-d]pyrimidin-2(1H)-one], the IC50 in the assay with HCT116 MTAP-/- is below 0.1 µM; in assay [1], below 0.1 µM; at MAT2A homodimer, below 0.1 µM; in the assay with HCT116 MTAP+/+, 0.1 to 1 µM.
Consider `[2H]C([2H])([2H])Oc1ccc(N2C(=O)N(c3ccc4nn(C)c(C)c4c3)Cc3ccc(OCC(F)F)nc32)cc1` [Example 105, 7-(2,2-difluoroethoxy)-3-(2,3-dimethyl-2H-indazol-5-yl)-1-(4-(methoxy-d3)phenyl)-3,4-dihydropyrido[2,3-d]pyrimidin-2(1H)-one], for which the IC50 with HCT116 MTAP-/- was below 0.1 µM; in assay [1] it was below 0.1 µM; at MAT2A homodimer, below 0.1 µM; in the assay on HCT116 MTAP+/+, 0.1 to 1 µM.
As to `CCOc1ccc2c(n1)N(c1ccc(OC(F)F)cc1)C(=O)N(c1ccn3nccc3c1)C2` [Example 106, 1-(4-(difluoromethoxy)phenyl)-7-ethoxy-3-(pyrazolo[1,5-a]pyridin-5-yl)-3,4-dihydropyrido[2,3-d]pyrimidin-2(1H)-one], the IC50 in the assay with HCT116 MTAP-/- is 0.1 to 1 µM; in assay [1], below 0.1 µM; on MAT2A homodimer, below 0.1 µM; with HCT116 MTAP+/+, above 1 µM.
Take `CCOc1ccc2c(n1)N(c1ccc(OC(F)F)cc1)C(=O)N(c1ccc(=O)n(C)c1)C2` [Example 107, 1-(4-(difluoromethoxy)phenyl)-7-ethoxy-3-(1-methyl-6-oxo-1,6-dihydropyridin-3-yl)-3,4-dihydropyrido[2,3-d]pyrimidin-2(1H)-one]: the IC50 in the assay on HCT116 MTAP-/- was 0.1 to 1 µM; in assay [1], 0.1 to 1 µM; at MAT2A homodimer, below 0.1 µM; with HCT116 MTAP+/+, above 1 µM.
As for `CCOc1ccc2c(n1)N(c1ccc(OC(F)F)cc1)C(=O)N(c1ccc3nncn3c1)C2` [Example 108, 3-([1,2,4]triazolo[4,3-a]pyridin-6-yl)-1-(4-(difluoromethoxy)phenyl)-7-ethoxy-3,4-dihydropyrido[2,3-d]pyrimidin-2(1H)-one], the IC50 with HCT116 MTAP-/- is 0.1 to 1 µM; in assay [1], 0.1 to 1 µM; on MAT2A homodimer it was below 0.1 µM; in the assay with HCT116 MTAP+/+, above 1 µM.
For the compound `CCOc1ccc2c(n1)N(c1ccc(OC(F)F)cc1)C(=O)N(c1ccc3nnn(C)c3c1)C2` [Example 109], the IC50 in the assay with HCT116 MTAP-/- was 0.1 to 1 µM; in assay [1], below 0.1 µM; on MAT2A homodimer, below 0.1 µM; with HCT116 MTAP+/+, above 1 µM.
In the case of `CCOc1ccc2c(n1)N(c1ccc(OC(F)F)cc1)C(=O)N(c1ccc3nn(C)nc3c1)C2` [Example 110, 1-(4-(difluoromethoxy)phenyl)-7-ethoxy-3-(2-methyl-2H-benzo[d][1,2,3]triazol-5-yl)-3,4-dihydropyrido[2,3-d]pyrimidin-2(1H)-one], the IC50 was 0.1 to 1 µM in the assay on HCT116 MTAP-/-, below 0.1 µM in assay [1], below 0.1 µM on MAT2A homodimer and above 1 µM in the assay with HCT116 MTAP+/+.
On to `CCOc1ccc2c(n1)N(c1ccc(OC(F)F)cc1)C(=O)N(c1ccc3ncccc3c1)C2` [Example 112, 1-(4-(difluoromethoxy)phenyl)-7-ethoxy-3-(quinolin-6-yl)-3,4-dihydropyrido[2,3-d]pyrimidin-2(1H)-one], for which the IC50 in the assay on HCT116 MTAP-/- was 0.1 to 1 µM; in assay [1] it was 0.1 to 1 µM; at MAT2A homodimer, below 0.1 µM; in the assay with HCT116 MTAP+/+, above 1 µM.
Regarding `COc1ccc(N2Cc3ccc(NCC(F)(F)F)nc3N(c3ccc(-c4ncn[nH]4)cc3)C2=O)cc1` [Example 113, 1-(4-(1H-1,2,4-triazol-5-yl)phenyl)-3-(4-methoxyphenyl)-7-((2,2,2-trifluoroethyl)amino)-3,4-dihydropyrido[2,3-d]pyrimidin-2(1H)-one], the IC50 was below 0.1 µM in the assay with HCT116 MTAP-/-, below 0.1 µM in assay [1], below 0.1 µM on MAT2A homodimer and above 1 µM in the assay on HCT116 MTAP+/+.
`Cn1cc2cc(N3Cc4ccc(NCC(F)(F)F)nc4N(c4ccc(-c5nc[nH]n5)cc4)C3=O)ccc2n1` [Example 114, 1-(4-(1H-1,2,4-triazol-3-yl)phenyl)-3-(2-methyl-2H-indazol-5-yl)-7-((2,2,2-trifluoroethyl)amino)-3,4-dihydropyrido[2,3-d]pyrimidin-2(1H)-one]: the IC50 in the assay with HCT116 MTAP-/- was below 0.1 µM; in assay [1], below 0.1 µM; at MAT2A homodimer, below 0.1 µM; with HCT116 MTAP+/+, above 1 µM.
`[2H]C([2H])([2H])Oc1ccc(N2C(=O)N(c3ccc4nn(C5CC5)cc4c3)Cc3ccc(OCC(F)F)nc32)cc1` [Example 115, 3-(2-cyclopropyl-2H-indazol-5-yl)-7-(2,2-difluoroethoxy)-1-(4-methoxy-d3-phenyl)-3,4-dihydropyrido[2,3-d]pyrimidin-2(1H)-one]: the IC50 was below 0.1 µM in the assay with HCT116 MTAP-/-, 0.1 to 1 µM in assay [1], below 0.1 µM on MAT2A homodimer and above 1 µM in the assay with HCT116 MTAP+/+.
As for `[2H]C([2H])([2H])Oc1ccc(N2C(=O)N(c3ccc4nn(C(C)C)cc4c3)Cc3ccc(OCC(F)F)nc32)cc1` [Example 118, 7-(2,2-difluoroethoxy)-3-(2-isopropyl-2H-indazol-5-yl)-1-(4-methoxy-d3-phenyl)-3,4-dihydropyrido[2,3-d]pyrimidin-2(1H)-one], the IC50 is below 0.1 µM in the assay with HCT116 MTAP-/-, 0.1 to 1 µM in assay [1], below 0.1 µM at MAT2A homodimer and above 1 µM in the assay with HCT116 MTAP+/+.
Regarding `COc1ccc(N2C(=O)N(c3ccc4nccnc4c3)Cc3cnc(NCC(F)(F)F)nc32)cc1` [Example 233, 1-(4-methoxyphenyl)-3-(quinoxalin-6-yl)-7-((2,2,2-trifluoroethyl)amino)-3,4-dihydropyrimido[4,5-d]pyrimidin-2(1H)-one], the figures for the IC50 (in the assay on HCT116 MTAP-/-; in assay [1]; on MAT2A homodimer) were 0.1 to 1 µM, 0.1 to 1 µM and below 0.1 µM, respectively.

Source of the values: patent US20220098203A1 (priority 2018, published 2022).
